Common to all, as to format: cell-based
One experiment concerns the target hKv1.3 (Homo sapiens, UniProt P22001). Kind of experiment: cell-based. As to conditions: Kv1.3 (IWQ) IC50 (nM, Avg).
Experiment [1] concerns IFN-g secretion from T cells in human whole blood. Particulars: read-out: WB (IFNg) IC50 (nM, Avg).
In experiment [2] the test system is IL-2 secretion from T cells in human whole blood. Particulars: read-out: WB (IL-2) IC50 (nM, Avg).

Each structure is given as a SMILES string.

Sequence of hKv1.3 (P22001 whole entry): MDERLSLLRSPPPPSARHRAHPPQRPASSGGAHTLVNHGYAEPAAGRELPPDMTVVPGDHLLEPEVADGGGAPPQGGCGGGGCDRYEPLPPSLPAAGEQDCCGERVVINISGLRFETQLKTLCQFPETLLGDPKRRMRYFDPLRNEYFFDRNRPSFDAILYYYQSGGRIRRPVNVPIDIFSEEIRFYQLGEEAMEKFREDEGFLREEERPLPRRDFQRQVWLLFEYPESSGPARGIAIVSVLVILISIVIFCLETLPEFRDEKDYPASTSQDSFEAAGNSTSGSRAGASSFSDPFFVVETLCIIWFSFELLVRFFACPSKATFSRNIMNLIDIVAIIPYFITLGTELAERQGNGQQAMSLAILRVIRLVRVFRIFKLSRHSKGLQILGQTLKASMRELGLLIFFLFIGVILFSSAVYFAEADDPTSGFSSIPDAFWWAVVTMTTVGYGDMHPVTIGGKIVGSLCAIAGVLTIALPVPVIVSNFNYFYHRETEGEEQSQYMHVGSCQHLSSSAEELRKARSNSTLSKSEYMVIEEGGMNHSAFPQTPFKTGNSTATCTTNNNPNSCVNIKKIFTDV

Take `CC[C@H](C)[C@@H]1NC(=O)[C@@H](NC(=O)[C@H](Cc2cccc3ccccc23)NC(=O)[C@@H](N)CCCNC(=N)N)CSSC[C@@H](C(=O)O)NC(=O)[C@H]([C@@H](C)O)NC(=O)CNC(=O)[C@@H]2CSSC[C@@H]3NC(=O)[C@H](CCC(N)=O)NC(=O)[C@H](Cc4ccccc4)NC(=O)[C@H](C)NC(=O)[C@H]([C@@H](C)O)NC(=O)[C@H](CSSC[C@H](NC(=O)[C@H](Cc4ccccc4)NC(=O)[C@H](CO)NC(=O)[C@H](CC(C)C)NC(=O)[C@H](CCCNC(=N)N)NC(=O)[C@H](Cc4ccc(O)cc4)NC(=O)[C@H](CCCCN)NC(=O)[C@H](CCSC)NC(=O)[C@H](CO)NC(=O)[C@H](Cc4c[nH]cn4)NC(=O)[C@H](CCCCN)NC3=O)C(=O)N[C@@H](CCCNC(=N)N)C(=O)N[C@@H](CCCCN)C(=O)N[C@@H]([C@@H](C)O)C(=O)N2)NC(=O)[C@H](CCCNC(=N)N)NC(=O)[C@H](CO)NC(=O)[C@H](CCCCN)NC(=O)[C@@H]2CCCN2C(=O)[C@H]([C@@H](C)CC)NC(=O)[C@H]([C@@H](C)O)NC(=O)[C@H](CC(=O)O)NC1=O` [[1-Nal2]ShK]: the IC50 turned out to be 0.25 nM against hKv1.3, 0.258 nM in experiment [1] and 0.223 nM in experiment [2].

For the compound `CC[C@H](C)[C@@H]1NC(=O)[C@H]([C@@H](C)O)NC(=O)[C@H](CC(=O)O)NC(=O)[C@H](Cc2cccc3ccccc23)NC(=O)[C@@H](NC(=O)[C@H](CO)NC(=O)[C@@H](N)CCCNC(=N)N)CSSC[C@@H](C(=O)O)NC(=O)[C@H]([C@@H](C)O)NC(=O)CNC(=O)[C@@H]2CSSC[C@@H]3NC(=O)[C@H](CCC(N)=O)NC(=O)[C@H](Cc4ccccc4)NC(=O)[C@H](C)NC(=O)[C@H]([C@@H](C)O)NC(=O)[C@H](CSSC[C@H](NC(=O)[C@H](Cc4ccccc4)NC(=O)[C@H](CO)NC(=O)[C@H](CC(C)C)NC(=O)[C@H](CCCNC(=N)N)NC(=O)[C@H](Cc4ccc(O)cc4)NC(=O)[C@H](CCCCN)NC(=O)[C@H](CCSC)NC(=O)[C@H](CO)NC(=O)[C@H](Cc4c[nH]cn4)NC(=O)[C@H](CCCCN)NC3=O)C(=O)N[C@@H](CCCNC(=N)N)C(=O)N[C@@H](CCCCN)C(=O)N[C@@H]([C@@H](C)O)C(=O)N2)NC(=O)[C@H](CCCNC(=N)N)NC(=O)[C@H](CO)NC(=O)[C@H](CCCCN)NC(=O)[C@@H]2CCCN2C1=O` [[1-Nal4]ShK], the values for the IC50 (on hKv1.3; in experiment [1]; in experiment [2]) were 0.15 nM, 0.317 nM and 0.274 nM, respectively.

With `CC[C@H](C)[C@@H]1NC(=O)[C@@H](NC(=O)[C@H](CO)NC(=O)[C@@H](N)CCCNC(=N)N)CSSC[C@@H](C(=O)O)NC(=O)[C@H]([C@@H](C)O)NC(=O)CNC(=O)[C@@H]2CSSC[C@@H]3NC(=O)[C@H](CCC(N)=O)NC(=O)[C@H](Cc4ccccc4)NC(=O)[C@H](C)NC(=O)[C@H]([C@@H](C)O)NC(=O)[C@H](CSSC[C@H](NC(=O)[C@H](Cc4ccccc4)NC(=O)[C@H](CO)NC(=O)[C@H](CC(C)C)NC(=O)[C@H](CCCNC(=N)N)NC(=O)[C@H](Cc4ccc(O)cc4)NC(=O)[C@H](CCCCN)NC(=O)[C@H](CCSC)NC(=O)[C@H](CO)NC(=O)[C@H](Cc4c[nH]cn4)NC(=O)[C@H](CCCCN)NC3=O)C(=O)N[C@@H](CCCNC(=N)N)C(=O)N[C@@H](CCCCN)C(=O)N[C@@H]([C@@H](C)O)C(=O)N2)NC(=O)[C@H](CCCNC(=N)N)NC(=O)[C@H](CO)NC(=O)[C@H](CCCCN)NC(=O)[C@@H]2CCCN2C(=O)[C@H]([C@@H](C)CC)NC(=O)[C@H]([C@@H](C)O)NC(=O)[C@H](Cc2cccc3ccccc23)NC1=O` [[1-Nal5]ShK], the IC50 worked out at 3.3 nM against hKv1.3, 31.9 nM in experiment [1] and 70.4 nM in experiment [2].

Turning to `CC[C@H](C)[C@@H]1NC(=O)[C@@H](NC(=O)[C@H](CO)NC(=O)[C@@H](N)CCCNC(=N)N)CSSC[C@@H](C(=O)O)NC(=O)[C@H]([C@@H](C)O)NC(=O)CNC(=O)[C@@H]2CSSC[C@@H]3NC(=O)[C@H](CCC(N)=O)NC(=O)[C@H](Cc4ccccc4)NC(=O)[C@H](C)NC(=O)[C@H]([C@@H](C)O)NC(=O)[C@H](CSSC[C@H](NC(=O)[C@H](Cc4ccccc4)NC(=O)[C@H](CO)NC(=O)[C@H](CC(C)C)NC(=O)[C@H](CCCNC(=N)N)NC(=O)[C@H](Cc4ccc(O)cc4)NC(=O)[C@H](CCCCN)NC(=O)[C@H](CCSC)NC(=O)[C@H](CO)NC(=O)[C@H](Cc4c[nH]cn4)NC(=O)[C@H](CCCCN)NC3=O)C(=O)N[C@@H](CCCNC(=N)N)C(=O)N[C@@H](CCCCN)C(=O)N[C@@H]([C@@H](C)O)C(=O)N2)NC(=O)[C@H](CCCNC(=N)N)NC(=O)[C@H](CO)NC(=O)[C@H](CCCCN)NC(=O)[C@@H]2CCCN2C(=O)[C@H]([C@@H](C)CC)NC(=O)[C@H](Cc2cccc3ccccc23)NC(=O)[C@H](CC(=O)O)NC1=O` [[1-Nal6]ShK], the values for the IC50 (against hKv1.3; in experiment [1]; in experiment [2]) were 0.15 nM, 0.962 nM and 0.86 nM, respectively.

In the case of `CC[C@H](C)[C@@H]1NC(=O)[C@@H](NC(=O)[C@H](CO)NC(=O)[C@@H](N)CCCNC(=N)N)CSSC[C@@H](C(=O)O)NC(=O)[C@H]([C@@H](C)O)NC(=O)CNC(=O)[C@@H]2CSSC[C@@H]3NC(=O)[C@H](CCC(N)=O)NC(=O)[C@H](Cc4ccccc4)NC(=O)[C@H](C)NC(=O)[C@H]([C@@H](C)O)NC(=O)[C@H](CSSC[C@H](NC(=O)[C@H](Cc4ccccc4)NC(=O)[C@H](CO)NC(=O)[C@H](CC(C)C)NC(=O)[C@H](CCCNC(=N)N)NC(=O)[C@H](Cc4ccc(O)cc4)NC(=O)[C@H](CCCCN)NC(=O)[C@H](CCSC)NC(=O)[C@H](CO)NC(=O)[C@H](Cc4c[nH]cn4)NC(=O)[C@H](CCCCN)NC3=O)C(=O)N[C@@H](CCCNC(=N)N)C(=O)N[C@@H](CCCCN)C(=O)N[C@@H]([C@@H](C)O)C(=O)N2)NC(=O)[C@H](CCCNC(=N)N)NC(=O)[C@H](CO)NC(=O)[C@H](CCCCN)NC(=O)[C@@H]2CCCN2C(=O)[C@H](Cc2cccc3ccccc23)NC(=O)[C@H]([C@@H](C)O)NC(=O)[C@H](CC(=O)O)NC1=O` [[1-Nal7]ShK], the IC50 against hKv1.3 was 0.699 nM; in experiment [1], 18 nM; in experiment [2] it was 11.6 nM.

For the compound `CC[C@H](C)[C@@H]1NC(=O)[C@@H](NC(=O)[C@H](CO)NC(=O)[C@@H](N)CCCNC(=N)N)CSSC[C@@H](C(=O)O)NC(=O)[C@H]([C@@H](C)O)NC(=O)CNC(=O)[C@@H]2CSSC[C@@H]3NC(=O)[C@H](CCC(N)=O)NC(=O)[C@H](Cc4ccccc4)NC(=O)[C@H](C)NC(=O)[C@H]([C@@H](C)O)NC(=O)[C@H](CSSC[C@H](NC(=O)[C@H](Cc4ccccc4)NC(=O)[C@H](CO)NC(=O)[C@H](CC(C)C)NC(=O)[C@H](CCCNC(=N)N)NC(=O)[C@H](Cc4ccc(O)cc4)NC(=O)[C@H](CCCCN)NC(=O)[C@H](CCSC)NC(=O)[C@H](CO)NC(=O)[C@H](Cc4c[nH]cn4)NC(=O)[C@H](CCCCN)NC3=O)C(=O)N[C@@H](CCCNC(=N)N)C(=O)N[C@@H](CCCCN)C(=O)N[C@@H]([C@@H](C)O)C(=O)N2)NC(=O)[C@H](CCCNC(=N)N)NC(=O)[C@H](Cc2cccc3ccccc23)NC(=O)[C@H](CCCCN)NC(=O)[C@@H]2CCCN2C(=O)[C@H]([C@@H](C)CC)NC(=O)[C@H]([C@@H](C)O)NC(=O)[C@H](CC(=O)O)NC1=O` [[1-Nal10]ShK], the IC50 against hKv1.3 amounted to 0.206 nM; in experiment [1], 0.255 nM; in experiment [2] it was 0.205 nM.

In the case of `CC[C@H](C)[C@@H]1NC(=O)[C@@H](NC(=O)[C@H](CO)NC(=O)[C@@H](N)CCCNC(=N)N)CSSC[C@@H](C(=O)O)NC(=O)[C@H]([C@@H](C)O)NC(=O)CNC(=O)[C@@H]2CSSC[C@@H]3NC(=O)[C@H](CCC(N)=O)NC(=O)[C@H](Cc4ccccc4)NC(=O)[C@H](C)NC(=O)[C@H]([C@@H](C)O)NC(=O)[C@H](CSSC[C@H](NC(=O)[C@H](Cc4ccccc4)NC(=O)[C@H](CO)NC(=O)[C@H](CC(C)C)NC(=O)[C@H](CCCNC(=N)N)NC(=O)[C@H](Cc4ccc(O)cc4)NC(=O)[C@H](CCCCN)NC(=O)[C@H](CCSC)NC(=O)[C@H](CO)NC(=O)[C@H](Cc4c[nH]cn4)NC(=O)[C@H](CCCCN)NC3=O)C(=O)N[C@@H](CCCNC(=N)N)C(=O)N[C@@H](CCCCN)C(=O)N[C@@H]([C@@H](C)O)C(=O)N2)NC(=O)[C@H](Cc2cccc3ccccc23)NC(=O)[C@H](CO)NC(=O)[C@H](CCCCN)NC(=O)[C@@H]2CCCN2C(=O)[C@H]([C@@H](C)CC)NC(=O)[C@H]([C@@H](C)O)NC(=O)[C@H](CC(=O)O)NC1=O` [[1-Nal11]ShK], the IC50 at hKv1.3 turned out to be 0.922 nM; in experiment [1], 1.65 nM; in experiment [2], 1.14 nM.

For the compound `CC[C@H](C)[C@@H]1NC(=O)[C@@H](NC(=O)[C@H](CO)NC(=O)[C@@H](N)CCCNC(=N)N)CSSC[C@@H](C(=O)O)NC(=O)[C@H]([C@@H](C)O)NC(=O)CNC(=O)[C@@H]2CSSC[C@@H]3NC(=O)[C@H](CCC(N)=O)NC(=O)[C@H](Cc4cccc5ccccc45)NC(=O)[C@H](C)NC(=O)[C@H]([C@@H](C)O)NC(=O)[C@H](CSSC[C@H](NC(=O)[C@H](Cc4ccccc4)NC(=O)[C@H](CO)NC(=O)[C@H](CC(C)C)NC(=O)[C@H](CCCNC(=N)N)NC(=O)[C@H](Cc4ccc(O)cc4)NC(=O)[C@H](CCCCN)NC(=O)[C@H](CCSC)NC(=O)[C@H](CO)NC(=O)[C@H](Cc4c[nH]cn4)NC(=O)[C@H](CCCCN)NC3=O)C(=O)N[C@@H](CCCNC(=N)N)C(=O)N[C@@H](CCCCN)C(=O)N[C@@H]([C@@H](C)O)C(=O)N2)NC(=O)[C@H](CCCNC(=N)N)NC(=O)[C@H](CO)NC(=O)[C@H](CCCCN)NC(=O)[C@@H]2CCCN2C(=O)[C@H]([C@@H](C)CC)NC(=O)[C@H]([C@@H](C)O)NC(=O)[C@H](CC(=O)O)NC1=O` [[1-Nal15]ShK], the IC50 was 0.072 nM on hKv1.3, 0.291 nM in experiment [1] and 0.184 nM in experiment [2].

For orientation: IC50 means the concentration that inhibits the measured activity by half.

Source of the values: patent US20120121591A1 (priority 2009, published 2012).
